The results in this text go back to US20250367166A1, “NEXT GENERATION DIPROVOCIMS THAT ACTIVATE THE INNATE AND ADAPTIVE IMMUNE RESPONSE” (The Scripps Research Institute, priority 2022, published 2025).

For experiment [1], the target named is TLR1/TLR2 (Homo sapiens, UniProt O60603+Q15399). Description: TNF-α release from PMA-differentiated human THP-1 cells (ELISA).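 For all read-outs here: cells exposed to graded compound concentrations for 4 h, TNF-α quantified in supernatant, LPS as positive and DMSO as negative control, values are duplicate means.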 The conditions noted are these: for Emax: THP-1, 4 h, read-out: Efficacy (magnitude) of response versus diprovocim-1 (100%), THP-1; for EC50: read-out: EC50 (nM) (THP-1): EC50 TNF-α release from human THP-1 cells.
Procedure: THP-1 (American Type Culture Collection) cells, a human monocytic leukemia cell line, were differentiated by treatment with 100 nM PMA (Sigma) in Roswell Park Memorial Institute (RPMI) cell culture medium [RPMI containing 10% vol/vol FBS (Gemini Bio Products), 1% penicillin and streptomycin (Life Technologies)] for 24 h. After that, the cells were washed with PBS and cultured in fresh RPMI cell culture medium for 24 h before use in studies. PMA-differentiated THP-1 cells were seeded onto 96-well plates at 0.5×10^5 cells per well and treated with systematically varied concentrations of the candidate compounds (dissolved in DMSO, and the final assay DMSO concentration (0.1%) was kept constant in all experiments) for 4 h. Ultra-pure LPS (dissolved in H2O, Enzo Life Sciences) was assessed alongside the compounds as a positive control and DMSO treated control was used as a negative control. Human TNF-α in the supernatants was measured by ELISA (eBioscience). This assay was used for establishing dose-response curves and measured EC50's. EC50's were calculated by Graphpad Prism. All data is the mean of duplicates and SD is within +10% of mean.
Experiment [2] addresses TLR1/TLR2 (Mus musculus, UniProt Q9EPQ1+Q9QUN7). As to the kind of experiment: TNF-α release from thioglycolate-elicited mouse peritoneal macrophages (ELISA). The conditions noted are these: for Emax: 4 h, read-out: Efficacy (magnitude) of response versus diprovocim-1 (100%), mouse macrophages. Background: ELISA stands for enzyme-linked immunosorbent assay.
The mark [3] stands for this setting: read-out: EC50 (nM) (mouse): EC50 TNF-α release from mouse macrophages, Table 3.
Where [4] appears, read: read-out: EC50 (nM) (mouse): EC50 TNF-α release from mouse macrophages, Table 1.
The mark [5] stands for this setting: read-out: EC50 (nM) (mouse): EC50 TNF-α release from mouse macrophages, Table 5.

Like-named read-outs stand apart in the source and are kept apart here. Where only a bound is given, the exact number is not on record here.

TLR1/TLR2 (Mus musculus, UniProt Q9EPQ1+Q9QUN7), sequence (Q9EPQ1 26-795): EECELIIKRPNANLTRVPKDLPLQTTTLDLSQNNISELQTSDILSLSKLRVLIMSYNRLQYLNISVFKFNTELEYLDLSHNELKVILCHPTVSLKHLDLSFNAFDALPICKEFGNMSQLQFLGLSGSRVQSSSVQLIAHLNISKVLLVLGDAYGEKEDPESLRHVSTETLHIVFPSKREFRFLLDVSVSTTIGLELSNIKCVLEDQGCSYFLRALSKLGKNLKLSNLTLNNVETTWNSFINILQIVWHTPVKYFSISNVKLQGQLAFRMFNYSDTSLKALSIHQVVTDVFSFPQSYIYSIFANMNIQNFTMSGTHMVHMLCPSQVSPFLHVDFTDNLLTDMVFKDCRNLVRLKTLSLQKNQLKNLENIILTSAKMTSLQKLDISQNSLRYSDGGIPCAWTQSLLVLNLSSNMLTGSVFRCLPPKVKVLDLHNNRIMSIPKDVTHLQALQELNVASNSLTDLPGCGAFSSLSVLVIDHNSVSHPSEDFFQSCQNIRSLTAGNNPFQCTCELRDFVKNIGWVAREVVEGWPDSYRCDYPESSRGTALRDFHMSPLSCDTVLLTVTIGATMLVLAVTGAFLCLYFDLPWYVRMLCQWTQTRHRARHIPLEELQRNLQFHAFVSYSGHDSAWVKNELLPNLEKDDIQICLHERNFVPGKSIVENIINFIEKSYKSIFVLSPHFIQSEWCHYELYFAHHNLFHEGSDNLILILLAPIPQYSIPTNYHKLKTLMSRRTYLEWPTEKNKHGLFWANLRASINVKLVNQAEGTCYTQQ
TLR1/TLR2 (Mus musculus, UniProt Q9EPQ1+Q9QUN7), sequence (Q9QUN7 25-784): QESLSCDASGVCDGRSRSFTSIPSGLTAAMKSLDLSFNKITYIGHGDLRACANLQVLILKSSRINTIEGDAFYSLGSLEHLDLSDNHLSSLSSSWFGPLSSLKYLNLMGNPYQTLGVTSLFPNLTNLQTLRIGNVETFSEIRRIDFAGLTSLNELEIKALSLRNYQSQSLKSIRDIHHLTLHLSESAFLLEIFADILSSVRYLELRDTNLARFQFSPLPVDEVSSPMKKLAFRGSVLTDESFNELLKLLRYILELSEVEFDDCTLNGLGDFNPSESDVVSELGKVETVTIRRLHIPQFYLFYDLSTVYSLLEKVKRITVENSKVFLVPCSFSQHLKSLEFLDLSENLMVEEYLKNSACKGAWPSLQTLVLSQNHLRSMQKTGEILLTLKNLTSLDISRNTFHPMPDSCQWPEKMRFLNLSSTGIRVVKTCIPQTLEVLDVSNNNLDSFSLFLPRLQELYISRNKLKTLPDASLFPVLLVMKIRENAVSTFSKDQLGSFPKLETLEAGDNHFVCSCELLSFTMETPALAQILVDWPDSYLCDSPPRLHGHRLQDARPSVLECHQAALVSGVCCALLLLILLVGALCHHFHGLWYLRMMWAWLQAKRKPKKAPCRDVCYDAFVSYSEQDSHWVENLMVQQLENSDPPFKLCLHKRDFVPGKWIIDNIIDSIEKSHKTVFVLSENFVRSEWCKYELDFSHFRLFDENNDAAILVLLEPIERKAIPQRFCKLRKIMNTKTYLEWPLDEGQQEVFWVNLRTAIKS
TLR1/TLR2 (Homo sapiens, UniProt O60603+Q15399), sequence (Q15399 25-786): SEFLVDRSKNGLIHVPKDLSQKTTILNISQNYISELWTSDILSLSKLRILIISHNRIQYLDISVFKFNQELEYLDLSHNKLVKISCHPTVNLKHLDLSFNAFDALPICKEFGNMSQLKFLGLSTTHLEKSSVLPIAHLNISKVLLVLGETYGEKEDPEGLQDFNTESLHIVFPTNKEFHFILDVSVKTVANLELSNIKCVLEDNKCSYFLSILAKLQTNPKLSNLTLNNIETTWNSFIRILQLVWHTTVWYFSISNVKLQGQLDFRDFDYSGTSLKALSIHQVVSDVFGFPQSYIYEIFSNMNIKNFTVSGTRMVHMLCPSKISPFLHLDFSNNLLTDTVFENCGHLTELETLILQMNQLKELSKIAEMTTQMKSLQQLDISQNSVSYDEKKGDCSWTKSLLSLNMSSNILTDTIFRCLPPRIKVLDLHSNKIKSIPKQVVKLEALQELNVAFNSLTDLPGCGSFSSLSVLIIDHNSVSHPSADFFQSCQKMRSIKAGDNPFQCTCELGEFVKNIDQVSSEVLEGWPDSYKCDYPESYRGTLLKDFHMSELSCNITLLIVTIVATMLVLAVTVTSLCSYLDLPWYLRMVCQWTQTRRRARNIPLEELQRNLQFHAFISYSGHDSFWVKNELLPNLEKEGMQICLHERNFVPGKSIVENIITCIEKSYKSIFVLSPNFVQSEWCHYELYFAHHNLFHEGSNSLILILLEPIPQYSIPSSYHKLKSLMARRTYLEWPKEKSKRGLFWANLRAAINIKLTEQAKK
TLR1/TLR2 (Homo sapiens, UniProt O60603+Q15399), sequence (O60603 21-784): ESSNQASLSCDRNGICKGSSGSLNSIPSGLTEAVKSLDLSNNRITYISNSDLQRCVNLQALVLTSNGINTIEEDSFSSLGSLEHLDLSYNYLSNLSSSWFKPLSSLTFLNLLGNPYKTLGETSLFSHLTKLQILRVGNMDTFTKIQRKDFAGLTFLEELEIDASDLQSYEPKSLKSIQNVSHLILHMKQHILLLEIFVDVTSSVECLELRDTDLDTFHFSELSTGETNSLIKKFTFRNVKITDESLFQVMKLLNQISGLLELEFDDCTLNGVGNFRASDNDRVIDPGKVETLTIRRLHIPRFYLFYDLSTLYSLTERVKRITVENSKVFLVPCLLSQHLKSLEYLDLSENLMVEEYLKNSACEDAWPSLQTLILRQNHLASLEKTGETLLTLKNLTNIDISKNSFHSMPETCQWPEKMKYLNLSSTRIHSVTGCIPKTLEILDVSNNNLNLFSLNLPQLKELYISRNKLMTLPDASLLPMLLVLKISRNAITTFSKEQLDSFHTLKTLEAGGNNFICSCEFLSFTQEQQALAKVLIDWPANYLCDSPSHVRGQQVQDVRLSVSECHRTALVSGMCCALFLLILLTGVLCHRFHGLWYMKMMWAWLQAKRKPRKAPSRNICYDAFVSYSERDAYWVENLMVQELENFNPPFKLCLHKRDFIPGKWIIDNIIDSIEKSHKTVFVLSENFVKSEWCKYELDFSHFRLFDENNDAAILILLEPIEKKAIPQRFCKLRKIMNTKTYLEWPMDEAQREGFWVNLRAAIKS

By EC50 is commonly meant the midpoint of the concentration-response curve. Consider `COC(=O)NCC(=O)OCCCCCCCCCCCCNC(=O)[C@@H]1CN(C(=O)c2ccc(C(=O)N3C[C@@H](C(=O)N[C@H]4C[C@@H]4c4ccccc4)[C@H](C(=O)N[C@H]4C[C@@H]4c4ccccc4)C3)cc2)C[C@H]1C(=O)N[C@H]1C[C@@H]1c1ccccc1` [Compound 39, 12-((3S,4S)-1-(4-((3S,4S)-3,4-Bis(((1S,2R)-2-phenylcyclopropyl)carbamoyl)pyrrolidine-1-carbonyl)benzoyl)-4-(((1S,2R)-2-phenylcyclopropyl)-carbamoyl)pyrrolidine-3-carboxamido)-dodecyl 2-((methoxycarbonyl)amino)acetate], for which the Emax at TLR1/TLR2 [1] amounted to 100%; at TLR1/TLR2 [2], 120%. Also, the EC50 came to 0.38 nM at TLR1/TLR2 [1] (Table 3) and 6 nM at TLR1/TLR2 [2] (setting [3]).

Take `COC(=O)CNC(=O)OCCCCCCCCCCCCNC(=O)[C@@H]1CN(C(=O)c2ccc(C(=O)N3C[C@@H](C(=O)N[C@H]4C[C@@H]4c4ccccc4)[C@H](C(=O)N[C@H]4C[C@@H]4c4ccccc4)C3)cc2)C[C@H]1C(=O)N[C@H]1C[C@@H]1c1ccccc1` [Compound 50, Methyl 2-((((12-((3S,4S)-1-(4-((3S,4S)-3,4-bis-(((1S,2R)-2-phenylcyclopropyl)carbamoyl)pyrrolidine-1-carbonyl)benzoyl)-4-(((1S,2R)-2-phenylcyclopropyl)-carbamoyl)pyrrolidine-3-carboxamido)dodecyl)oxy)-carbonyl)amino)acetate]: the Emax on TLR1/TLR2 [1] and at TLR1/TLR2 [2] was 90% throughout. For the same compound, the EC50 at TLR1/TLR2 [1] (Table 3) is 0.2 nM; at TLR1/TLR2 [2] (setting [3]), 6 nM.

For `CC(C)(C)OC(=O)NCCCCCCCCCCCCNC(=O)[C@@H]1CN(C(=O)c2ccc(C(=O)N3C[C@@H](C(=O)N[C@H]4C[C@@H]4c4ccccc4)[C@H](C(=O)N[C@H]4C[C@@H]4c4ccccc4)C3)cc2)C[C@H]1C(=O)N[C@H]1C[C@@H]1c1ccccc1` [Compound 17, tert-Butyl (12-((3S,4S)-1-(4-((3S,4S)-3,4-bis(((1S,2R)-2-phenylcyclopropyl)carbamoyl)-pyrrolidine-1-carbonyl)benzoyl)-4-(((1S,2R)-2-phenylcyclopropyl)carbamoyl)pyrrolidine-3-carboxamido)dodecyl)carbamate], the results for the Emax at TLR1/TLR2 [1] and at TLR1/TLR2 [2] were 70% and 120%, respectively. In addition, the EC50 on TLR1/TLR2 [1] (Table 1) turned out to be 0.18 nM; at TLR1/TLR2 [2] (setting [4]), 2.8 nM.

Turning to `N#CCC(=O)OCCCCCCCCCCCCNC(=O)[C@@H]1CN(C(=O)c2ccc(C(=O)N3C[C@@H](C(=O)N[C@H]4C[C@@H]4c4ccccc4)[C@H](C(=O)N[C@H]4C[C@@H]4c4ccccc4)C3)cc2)C[C@H]1C(=O)N[C@H]1C[C@@H]1c1ccccc1` [Compound 33, 12-((3S,4S)-1-(4-((3S,4S)-3,4-Bis(((1S,2R)-2-phenylcyclopropyl)carbamoyl)pyrrolidine-1-carbonyl)benzoyl)-4-(((1S,2R)-2-phenylcyclopropyl)-carbamoyl)pyrrolidine-3-carboxamido)dodecyl 2-cyanoacetate], the Emax was determined as 100% on TLR1/TLR2 [1] and 120% at TLR1/TLR2 [2]. Besides, the EC50 is 0.25 nM at TLR1/TLR2 [1] (Table 3) and 4.5 nM on TLR1/TLR2 [2] (setting [3]).

As for `CC(C)(C)OC(=O)NC1(C(=O)OCCCCCCCCCCCCNC(=O)[C@@H]2CN(C(=O)c3ccc(C(=O)N4C[C@@H](C(=O)N[C@H]5C[C@@H]5c5ccccc5)[C@H](C(=O)N[C@H]5C[C@@H]5c5ccccc5)C4)cc3)C[C@H]2C(=O)N[C@H]2C[C@@H]2c2ccccc2)CC1` [Compound 62, 12-((3S,4S)-1-(4-((3S,4S)-3,4-Bis(((1S,2R)-2-phenylcyclopropyl)carbamoyl)pyrrolidine-1-carbonyl)-benzoyl)-4-(((1S,2R)-2-phenylcyclopropyl)carbamoyl)-pyrrolidine-3-carboxamido)-dodecyl 1-((tert-butoxy-carbonyl)amino)cyclopropanecarboxylate], the Emax worked out at 100% on TLR1/TLR2 [1] and 220% at TLR1/TLR2 [2]. Further, the EC50 was found to be 5 nM on TLR1/TLR2 [1] (Table 5) and 10 nM at TLR1/TLR2 [2] (setting [5]).

With `Nc1ccc(COCCCCCCCCCCCCNC(=O)[C@@H]2CN(C(=O)c3ccc(C(=O)N4C[C@@H](C(=O)N[C@H]5C[C@@H]5c5ccccc5)[C@H](C(=O)N[C@H]5C[C@@H]5c5ccccc5)C4)cc3)C[C@H]2C(=O)N[C@H]2C[C@@H]2c2ccccc2)cc1` [Compound 52, (3S,4S)—N^3-(12-((4-Aminobenzyl)oxy)dodecyl)-1-(4-((3S,4S)-3,4-bis(((1S,2R)-2-phenyl-cyclopropyl)carbamoyl)pyrrolidine-1-carbonyl)-benzoyl)-N^4-((1S,2R)-2-phenylcyclopropyl)pyrrolidine-3,4-dicarboxamide], the results for the Emax at TLR1/TLR2 [1] and on TLR1/TLR2 [2] were 90% and 130%, respectively. In addition, the EC50 was found to be 0.26 nM on TLR1/TLR2 [1] (Table 3) and 2 nM on TLR1/TLR2 [2] (setting [3]).

Turning to `CC(C)(C)OC(=O)NCCOCCCCCCCCCCCCNC(=O)[C@@H]1CN(C(=O)c2ccc(C(=O)N3C[C@@H](C(=O)N[C@H]4C[C@@H]4c4ccccc4)[C@H](C(=O)N[C@H]4C[C@@H]4c4ccccc4)C3)cc2)C[C@H]1C(=O)N[C@H]1C[C@@H]1c1ccccc1` [Compound 48, tert-Butyl (2-((12-((3S,4S)-1-(4-((3S,4S)-3,4-bis(((1S,2R)-2-phenylcyclopropyl)carbamoyl)-pyrrolidine-1-carbonyl)-benzoyl)-4-(((1S,2R)-2-phenylcyclopropyl)carbamoyl)pyrrolidine-3-carbox-amido)dodecyl)oxy)ethyl)carbamate], the Emax on TLR1/TLR2 [1] stood at 100%; on TLR1/TLR2 [2] it was 220%. For the same compound, the EC50 on TLR1/TLR2 [1] (Table 3) was found to be 3 nM; on TLR1/TLR2 [2] (setting [3]), 6.3 nM.

For `O=C(NCCOCCOCCOCCO)[C@@H]1CN(C(=O)c2ccc(C(=O)N3C[C@@H](C(=O)N[C@H]4C[C@@H]4c4ccccc4)[C@H](C(=O)N[C@H]4C[C@@H]4c4ccccc4)C3)cc2)C[C@H]1C(=O)N[C@H]1C[C@@H]1c1ccccc1` [Compound 30, (3S,4S)-1-(4-((3S,4S)-3,4-Bis(((1S,2R)-2-phenyl-cyclopropyl)carbamoyl)pyrrolidine-1-carbonyl)-benzoyl)-N^3-(2-(2-(2-(2-hydroxyethoxy)ethoxy)ethoxy)-ethyl)-N^4-((1S,2R)-2-phenylcyclopropyl)-pyrrolidine-3,4-dicarboxamide], the EC50 was 2000 nM at TLR1/TLR2 [1] (Table 2) and more than 5000 nM on TLR1/TLR2 [2].

For the compound `CC(C)(C)OC(=O)N[C@@H](CCCCNC(=O)OCC1c2ccccc2-c2ccccc21)C(=O)OCCCCCCCCCCCCNC(=O)[C@@H]1CN(C(=O)c2ccc(C(=O)N3C[C@@H](C(=O)N[C@H]4C[C@@H]4c4ccccc4)[C@H](C(=O)N[C@H]4C[C@@H]4c4ccccc4)C3)cc2)C[C@H]1C(=O)N[C@H]1C[C@@H]1c1ccccc1` [Compound 69, (S)-12-((3S,4S)-1-(4-((3S,4S)-3,4-Bis(((1S,2R)-2-phenylcyclopropyl)carbamoyl)pyrrolidine-1-carbonyl)-benzoyl)-4-(((1S,2R)-2-phenylcyclopropyl)carbamoyl)-pyrrolidine-3-carboxamido)-dodecyl 6-((((9H-fluoren-9-yl)methoxy)-carbonyl)amino)-2-((tert-butoxy-carbonyl)amino)-hexanoate], the Emax on TLR1/TLR2 [1] worked out at 100%; at TLR1/TLR2 [2] it was 200%. Moreover, the EC50 on TLR1/TLR2 [1] (Table 5) was determined as 280 nM; at TLR1/TLR2 [2] (setting [5]), 1150 nM.

Regarding `C#CCCCCCCCCCCCCNC(=O)[C@@H]1CN(C(=O)c2ccc(C(=O)N3C[C@@H](C(=O)N[C@H]4C[C@@H]4c4ccccc4)[C@H](C(=O)N[C@H]4C[C@@H]4c4ccccc4)C3)cc2)C[C@H]1C(=O)N[C@H]1C[C@@H]1c1ccccc1` [Compound 19, (3S,4S)-1-(4-((3S,4S)-3,4-Bis(((1S,2R)-2-phenylcyclo-propyl)carbamoyl)pyrrolidine-1-carbonyl)-benzoyl)-N^3-((1S,2R)-2-phenylcyclopropyl)-N^4-(tetradec-13-yn-1-yl)pyrrolidine-3,4-dicarboxamide], the Emax came out at 120% on TLR1/TLR2 [1] and 180% at TLR1/TLR2 [2]. Moreover, the EC50 at TLR1/TLR2 [1] (Table 1) was 0.04 nM; on TLR1/TLR2 [2] (setting [4]) it was 1.3 nM.

Regarding `Nc1ccc(C(=O)OCCCCCCCCCCCCNC(=O)[C@@H]2CN(C(=O)c3ccc(C(=O)N4C[C@@H](C(=O)N[C@H]5C[C@@H]5c5ccccc5)[C@H](C(=O)N[C@H]5C[C@@H]5c5ccccc5)C4)cc3)C[C@H]2C(=O)N[C@H]2C[C@@H]2c2ccccc2)cc1` [Compound 74, 12-((3S,4S)-1-(4-((3S,4S)-3,4-Bis(((1S,2R)-2-phenyl-cyclopropyl)carbamoyl)pyrrolidine-1-carbonyl)benzoyl)-4-(((1S,2R)-2-phenylcyclopropyl)carbamoyl)-pyrrolidine-3-carboxamido)-dodecyl 4-aminobenzoate], the Emax on TLR1/TLR2 [1] is 100%; at TLR1/TLR2 [2] it was 300%. Moreover, the EC50 at TLR1/TLR2 [1] (Table 6) was found to be 0.05 nM; on TLR1/TLR2 [2] (read-out: EC50 (nM) (mouse): EC50 TNF-α release from mouse macrophages, Table 6), 0.67 nM.

With `CN(CC(=O)OCCCCCCCCCCCCNC(=O)[C@@H]1CN(C(=O)c2ccc(C(=O)N3C[C@@H](C(=O)N[C@H]4C[C@@H]4c4ccccc4)[C@H](C(=O)N[C@H]4C[C@@H]4c4ccccc4)C3)cc2)C[C@H]1C(=O)N[C@H]1C[C@@H]1c1ccccc1)C(=O)OC(C)(C)C` [Compound 70, 12-((3S,4S)-1-(4-((3S,4S)-3,4-Bis(((1S,2R)-2-phenyl-cyclopropyl)carbamoyl)pyrrolidine-1-carbonyl)-benzoyl)-4-(((1S,2R)-2-phenylcyclopropyl)carbamoyl)-pyrrolidine-3-carboxamido)-dodecyl 2-((tert-butoxycarbonyl)(methyl)amino)acetate], the figures for the Emax on TLR1/TLR2 [1] and at TLR1/TLR2 [2] were 100% and 110%, respectively. Besides, the figures for the EC50 on TLR1/TLR2 [1] (Table 5) and at TLR1/TLR2 [2] (setting [5]) were 1.7 nM and 17 nM, respectively.
